Results published in US10421761B2, “Compounds for kinase modulation, and indications therefor” (Plexxikon Inc., priority 2013, dated 2019).
“Also recorded” adds a separate entry of the source. Like-named read-outs stand apart in the source and are kept apart here.

Legend:
[1] = tested on: B9 (HRAS Q61L) cell line; assay: B9 P-ERK cell activation assay (AlphaScreen); format: cell-based, mouse; conditions: for EC50: Mus musculus, P-ERK cell activation, B9, numeric bounds, read-out: Cell activity (EC50 μM) B9_pERK
Procedure: (§1) B9 is a squamous cell carcinoma cell line expressing activated HRAS that was isolated from a DMBA/TPA-induced mouse model of skin carcinogenesis (Stoler, et al. The Journal of Cell Biology, 1993, 122(5), 1103-17). IPC-298 is a human melanoma cell line that expresses activated NRAS (Aubert, et al. International Journal of Cancer, 1993, 54(5), 784-92). To determine whether compounds induce phosphorylated ERK and MEK, cells are plated in a 96-well dish and treated with an 8-point titration of compound for one hour at 37° C. The media is then removed and the cells are incubated with lysis buffer containing protease and phosphatase inhibitors. Phosphorylated ERK and MEK in the resulting lysates is detected using AlphaScreen™ technology. To detect phosphorylated ERK, cell lysates are incubated with streptavidin-coated donor beads, anti-mouse IgG acceptor beads, a biotinylated anti-ERK1/2 rabbit antibody, and a mouse antibody that recognizes ERK1/2 only when it is phosphorylated on Thr202 and Tyr204. The biotinylated ERK1/2 antibody will bind to both the streptavidin-coated donor beads and to ERK1/2 (regardless of its phosphorylation state), and the phospho-ERK1/2 antibody will bind to the acceptor beads and to ERK1/2 that is phosphorylated at Thr202/Tyr204. Excitation of the beads with laser light at 680 nm produces singlet oxygen, which is rapidly quenched unless the beads are in close proximity. When ERK is phosphorylated, both antibodies can bind the same protein, bringing the donor and acceptor beads into close proximity, producing a signal that can be measured at 580 nm. MEK phosphorylation is detected using a similar approach, only with antibodies directed against total MEK1/2 and MEK1/2 that is phosphorylated at Ser217 and Ser221.
(§2) Phospho-ERK AlphaScreen® assay. To determine the effects of compound treatment upon phosphorylation of ERK1/2, cells were plated in a 96-well dish and treated with an 8-point titration of compound for one hour at 37° C. before lysis. To detect pERK, cell lysates were incubated with streptavidin-coated AlphaScreen® donor beads, anti-mouse IgG AlphaScreen® acceptor beads, a biotinylated anti-ERK1/2 rabbit antibody, and a mouse antibody that recognizes ERK1/2 only when it is phosphorylated on Thr202 and Tyr204. The biotinylated ERK1/2 antibody binds to both the streptavidin-coated AlphaScreen® donor beads and to ERK1/2 (regardless of its phosphorylation state), and the phospho-ERK1/2 antibody binds to the acceptor beads and to ERK1/2 that is phosphorylated at Thr202/Tyr204. An increase in ERK1/2 phosphorylation at Thr202/Tyr204 brings the donor and acceptor AlphaScreen® beads into close proximity, generating a signal that can be quantified on an EnVision reader (Perkin Elmer).

[2] = tested on: IPC-298 (NRAS Q61L) cell line; assay: IPC-298 P-ERK cell activation assay (AlphaScreen); format: cell-based, human; conditions: for EC50: Homo sapiens, P-ERK cell activation, IPC-298, read-out: Cell activity (EC50 μM) IPC-298_P-ERK
Procedure: as §1, §2

[3] = tested on: A375 (BRAF V600E) cell line; assay: A375 P-ERK inhibition assay (AlphaScreen); format: cell-based, human; conditions: for IC50: Homo sapiens, A-375, A375_P-ERK
Procedure: as §2

[4] = target: T1, BRAF V600E (Homo sapiens, UniProt P15056, V600E); assay: BRAF V600E biochemical kinase activity assay (AlphaScreen, biotin-MEK1 substrate); conditions: BRAF V600E biochemical inhibitory activity
T1 construct: purchased Upstate Biotechnology
T1 sequence (P15056 whole entry V600E): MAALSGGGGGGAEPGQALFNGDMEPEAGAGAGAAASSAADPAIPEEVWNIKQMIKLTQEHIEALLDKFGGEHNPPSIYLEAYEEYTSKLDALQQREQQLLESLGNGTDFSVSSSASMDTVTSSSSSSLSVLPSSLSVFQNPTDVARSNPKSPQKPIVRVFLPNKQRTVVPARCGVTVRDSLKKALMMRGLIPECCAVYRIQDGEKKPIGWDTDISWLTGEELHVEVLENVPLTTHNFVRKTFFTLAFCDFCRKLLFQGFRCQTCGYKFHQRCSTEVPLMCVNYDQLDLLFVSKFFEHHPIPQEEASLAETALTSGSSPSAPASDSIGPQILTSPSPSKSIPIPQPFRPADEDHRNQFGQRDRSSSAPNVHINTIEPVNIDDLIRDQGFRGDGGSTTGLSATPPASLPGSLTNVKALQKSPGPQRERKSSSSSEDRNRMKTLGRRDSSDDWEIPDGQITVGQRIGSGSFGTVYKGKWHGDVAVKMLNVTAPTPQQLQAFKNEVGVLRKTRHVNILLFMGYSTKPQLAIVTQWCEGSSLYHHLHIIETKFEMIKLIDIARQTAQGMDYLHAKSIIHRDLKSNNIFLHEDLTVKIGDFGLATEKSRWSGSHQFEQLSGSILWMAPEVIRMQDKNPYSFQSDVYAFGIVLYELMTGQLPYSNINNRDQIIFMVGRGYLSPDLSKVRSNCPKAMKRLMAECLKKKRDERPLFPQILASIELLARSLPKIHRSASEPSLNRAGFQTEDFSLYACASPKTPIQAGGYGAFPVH
Procedure: Compounds to be tested are diluted in dimethyl sulfoxide to a concentration of 0.1 mM. These are serially diluted 15 μL into 30 μL of dimethyl sulfoxide seven times in 96 well plates for a total of 8 dilution points, and for each dilution point 1 μL is added to a well of an assay plate. […] The reaction is started with addition of 10 μL of 200 μM ATP (i.e. final 100 μM ATP). After incubation of the kinase reaction for 45 minutes at room temperature, 5 μL/well of Stop Solution is added (25 mM Hepes pH 7.5, 100 mM EDTA, 0.01% BSA with donor beads (Streptavidin coated beads, Perkin Elmer), acceptor beads (Protein A coated, Perkin Elmer), and anti-phosphor MEK1/2 antibody (CellSignal), each at final concentration 10 μg/mL). The plates are incubated for 3 hours at room temperature and read on Envision reader (Perkin Elmer). Phosphorylation of Mek1 results in binding of the anti-phosphor-MEK1/2antibody and association of the donor and acceptor beads such that signal correlates with kinase activity. The signal versus compound concentration is used to determine the IC50.
The in vitro RAF kinase activities were determined by measuring phosphorylation of a biotinylated substrate peptide as described previously (Tsai, J. et al. Proc Natl Acad Sci USA 105, 3041-3046 (2008)). Compounds of formula (I), e.g., compound A, was also tested against a panel of 287 kinases at concentrations of 1 μM in duplicate. Kinases inhibited by over 50% were followed up by IC50 determination. The 287 kinases represent all major branches of the kinome phylogenetic tree. The inhibition screen of 287 kinases was carried out under contract as complementary panels at Invitrogen (Life Technologies, Wis., USA) SelectScreen™ profiling service, DiscoverX (CA, USA) KINOMEScan™ service, and Reaction Biology Corporation (PA, USA) Kinase HotSpot℠ service.

Row | SMILES | pERK activation ([1]; RAS mutant cell line B9, one hour treatment) | pERK activation ([2]; RAS mutant cell line IPC-298, one hour treatment) | pERK inhibition ([3]; BRAF V600E cell line A375) | IC50 [4] | IC50 [3] | EC50 [1] | EC50 ([2]; numeric bounds) | EC50 ([2]; class symbols)
1 | CCN(C)S(=O)(=O)Nc1cccc(-c2nc(C(C)(C)C)sc2-c2ccnc(N)n2)c1F [P-0352, 5-(2-aminopyrimidin-4-yl)-2-tert-butyl-4-[3-[[ethyl(methyl)sulfamoyl]amino]-2-fluoro-phenyl]thiazole] | significantly reduced pERK activation; also recorded: markedly reduced pERK activation | significantly reduced pERK activation; also recorded: markedly reduced pERK activation | preserving the potent inhibitory activity; also recorded: moderate decrease in pERK IC50 |  |  |  |  | 
2 | CC(C)S(=O)(=O)Nc1ccc(F)c(C(=O)c2c[nH]c3nccc(Cl)c23)c1F [P-2013, N-[3-(4-chloro-1H-pyrrolo[2,3-b]pyridine-3-carbonyl)-2,4-difluoro-phenyl]propane-2-sulfonamide] |  |  |  | 0.0001 to 1 µM | 0.0001 to 1 µM |  |  | 
3 | O=C(c1c(F)ccc(NS(=O)(=O)C2CCCC2)c1F)c1c[nH]c2ncncc12 [P-2028, N-[2,4-difluoro-3-(7H-pyrrolo[2,3-d]pyrimidine-5-carbonyl)phenyl]cyclopentanesulfonamide] |  |  |  |  | > 10 µM | > 10 µM | > 10 µM | 
4 | O=C(c1c(F)ccc(NS(=O)(=O)N2CCCC2)c1F)c1c[nH]c2ncncc12 [P-2029, N-[2,4-difluoro-3-(7H-pyrrolo[2,3-d]pyrimidine-5-carbonyl)phenyl]pyrrolidine-1-sulfonamide] |  |  |  |  | 0.0001 to 1 µM | > 10 µM | > 10 µM | 
5 | CC(C)S(=O)(=O)Nc1ccc(F)c(C(=O)c2c[nH]c3ncnc(NCC4CC4)c23)c1F [P-2047, N-[3-[4-(cyclopropylmethylamino)-7H-pyrrolo[2,3-d]pyrimidine-5-carbonyl]-2,4-difluoro-phenyl]propane-2-sulfonamide] |  |  |  | 0.0001 to 1 µM | 0.0001 to 1 µM |  |  | 
6 | CN(C)S(=O)(=O)Nc1ccc(F)c(C(=O)c2c[nH]c3ncnc(NCC4CC4)c23)c1F [P-2048, 4-(cyclopropylmethylamino)-5-[3-(dimethylsulfamoylamino)-2,6-difluoro-benzoyl]-7H-pyrrolo[2,3-d]pyrimidine] |  |  |  | 0.0001 to 1 µM | 0.0001 to 1 µM |  | > 10 µM | 
7 | CCCC(C)S(=O)(=O)Nc1ccc(F)c(C(=O)c2c[nH]c3ncnc(NCC4CC4)c23)c1F (stereo not drawn) [P-2051, N-[3-[4-(cyclopropylmethylamino)-7H-pyrrolo[2,3-d]pyrimidine-5-carbonyl]-2,4-difluoro-phenyl]pentane-2-sulfonamide] |  |  |  | 0.0001 to 1 µM | 0.0001 to 1 µM |  |  | 
8 | O=C(c1cccc(NS(=O)(=O)N2CCCC2)c1F)c1c[nH]c2ncnc(NCC(F)(F)F)c12 [P-2077, N-[2-fluoro-3-[4-(2,2,2-trifluoroethylamino)-7H-pyrrolo[2,3-d]pyrimidine-5-carbonyl]phenyl]pyrrolidine-1-sulfonamide] |  |  |  | 0.0001 to 1 µM | 0.0001 to 1 µM |  | > 10 µM | 
9 | CC1(C)OCC(CNc2ncnc3[nH]cc(C(=O)c4cccc(NS(=O)(=O)N5CCCC5)c4F)c23)O1 (stereo not drawn) [P-2095, N-[3-[4-[(2,2-dimethyl-1,3-dioxolan-4-yl)methylamino]-7H-pyrrolo[2,3-d]pyrimidine-5-carbonyl]-2-fluoro-phenyl]pyrrolidine-1-sulfonamide] |  |  |  |  | 0.0001 to 1 µM | > 10 µM | > 10 µM | 
10 | O=C(c1cccc(NS(=O)(=O)N2CCCC2)c1F)c1c[nH]c2ncnc(NCCC(F)(F)F)c12 [P-2112, N-[2-fluoro-3-[4-(3,3,3-trifluoropropylamino)-7H-pyrrolo[2,3-d]pyrimidine-5-carbonyl]phenyl]pyrrolidine-1-sulfonamide] |  |  |  | 0.0001 to 1 µM | 0.0001 to 1 µM |  | > 10 µM | 
11 | Cc1nc2c(-c3sc(C(C)(C)C)nc3-c3cccc(NS(=O)(=O)N4CCCC4)c3F)ccnc2[nH]1 [P-2126, N-[3-[2-tert-butyl-5-(2-methyl-3H-imidazo[4,5-b]pyridin-7-yl)thiazol-4-yl]-2-fluoro-phenyl]pyrrolidine-1-sulfonamide] |  |  |  | 0.0001 to 1 µM | 0.0001 to 1 µM | > 10 µM |  | 
12 | COC(=O)N[C@@H](C)CNc1nccc(-c2sc(C(C)(C)C)nc2-c2cccc(NS(=O)(=O)N3CC[C@@H](F)C3)c2F)n1 [P-2138, methyl N-[(1S)-2-[[4-[2-tert-butyl-4-[2-fluoro-3-[[(3R)-3-fluoropyrrolidin-1-yl]sulfonylamino]phenyl]thiazol-5-yl]pyrimidin-2-yl]amino]-1-methyl-ethyl]carbamate] |  |  |  | 0.0001 to 1 µM | 0.0001 to 1 µM | > 10 µM |  | 
13 | COC(=O)N[C@@H](C)CNc1nccc(-c2sc(-c3ccccc3)nc2-c2cccc(NS(=O)(=O)N3CC[C@@H](F)C3)c2F)n1 [P-2152, methyl N-[(1S)-2-[[4-[4-[2-fluoro-3-[[(3R)-3-fluoropyrrolidin-1-yl]sulfonylamino]phenyl]-2-phenyl-thiazol-5-yl]pyrimidin-2-yl]amino]-1-methyl-ethyl]carbamate] |  |  |  | 0.0001 to 1 µM | 0.0001 to 1 µM |  |  | 0.0001 to 1 µM
14 | COC(=O)N[C@@H](C)CNc1nccc(-c2nn(C(C)C)cc2-c2cc(Cl)cc(NS(=O)(=O)N3CCCC3)c2F)n1 [P-2160, methyl N-[(1S)-2-[[4-[4-[5-chloro-2-fluoro-3-(pyrrolidin-1-ylsulfonylamino)phenyl]-1-isopropyl-pyrazol-3-yl]pyrimidin-2-yl]amino]-1-methyl-ethyl]carbamate] |  |  |  | 0.0001 to 1 µM | 0.0001 to 1 µM |  |  | 0.0001 to 1 µM
15 | CCN(C)S(=O)(=O)Nc1cc(Cl)cc(-c2cn(C(C)C)nc2-c2ccnc(NC[C@H](C)NC(=O)OC)n2)c1F [P-2164, methyl N-[(1S)-2-[[4-[4-[5-chloro-3-[[ethyl(methyl)sulfamoyl]amino]-2-fluoro-phenyl]-1-isopropyl-pyrazol-3-yl]pyrimidin-2-yl]amino]-1-methyl-ethyl]carbamate] |  |  |  | 0.0001 to 1 µM | 0.0001 to 1 µM |  | > 10 µM | 
16 | CN(C)S(=O)(=O)Nc1cc(Cl)cc(C(=O)c2c[nH]c3ncc(-c4cnc(C5CC5)nc4)cc23)c1F [P-2175, 3-[5-chloro-3-(dimethylsulfamoylamino)-2-fluoro-benzoyl]-5-(2-cyclopropylpyrimidin-5-yl)-1H-pyrrolo[2,3-b]pyridine] |  |  |  | 0.0001 to 1 µM | 0.0001 to 1 µM |  | > 10 µM | 
17 | Cc1cc(NS(=O)(=O)N2CC[C@@H](F)C2)c(F)c(C(=O)c2c[nH]c3ncc(-c4cnc(C5CC5)nc4)cc23)c1 [P-2182, (3R)-N-[3-[5-(2-cyclopropylpyrimidin-5-yl)-1H-pyrrolo[2,3-b]pyridine-3-carbonyl]-2-fluoro-5-methyl-phenyl]-3-fluoro-pyrrolidine-1-sulfonamide] |  |  |  | 0.0001 to 1 µM |  | > 10 µM | > 10 µM | 
